Reference: patent publication US20230270753A1, “COMBINATIONS OF GABAA ALPHA 5 AGONISTS AND SV2A INHIBITORS AND METHODS OF USING IN THE TREATMENT OF COGNITIVE IMPAIRMENT” (AGENEBIO, INC., priority 2020, published 2023)

Columns and labels:
[1] = system: aMCI subjects; assay: fMRI activity of medial temporal lobe subregions during the explicit 3-alternative forced choice task (Examples 2 and 3); format: in vivo, human
Procedure: A within-subjects trial of 8 weeks duration, involving 17 amnestic MCI (aMCI) subjects and 17 age-matched controls with a low dose treatment of levetiracetam is conducted. […] Age-matched control subjects treated with placebo serve as a further control. […] The […]

[2] = system: somatostatin in DG hilus; assay: Somatostatin immunohistochemistry, hilar interneuron counts (Example 5); format: in vivo, rat; conditions: levetiracetam 10 mg/kg/day in osmotic minipumps for four weeks; aged-impaired rats
Text: Tissue was labeled with anti-SOM antiserum (Santa Cruz Biotechnology; cat. no. SC7819-P) using an established immunoperoxidase protocol and tissue sections were processed concurrently to minimize inter-replication variability (Haberman et al., 2009). The anti-SOM antiserum can detect somatostatin. Briefly, sections were washed in 0.1M phosphate-buffered saline (PBS) to remove cryoprotectant, and endogenous peroxidases were quenched in 0.3% H2O2 in PBS. After additional PBS washes, sections were blocked in 5% normal horse serum in PBS with 0.3% Triton. Sections were then incubated with primary antibody at a dilution of 1:1600 in PBS containing 0.15% Triton and 3% normal serum for 72 hours at 4° C. with agitation. […] The secondary antibody was detected with avidin-biotin complex (ABC Elite; Vector Laboratories Inc., Burlingame, Calif.) and the avidin-biotin complex was visualized with nickel-enhanced diaminobenzadine (Vector Laboratories Inc., Burlingame, Calif.). […]
Interneuron quantification was performed using a Zeiss Axioplan 2 microscope equipped with a motorized stage. […] Neuron counts were analyzed as the total number of hilar interneurons per hippocampal section for each rat.

[3] = system: aMCI subjects; assay: Explicit 3-alternative forced choice task performance (Examples 2 and 3); format: in vivo, human
[4] = system: reelin in Entorhinal Cortex (EC2); assay: Reelin mRNA in situ hybridization in entorhinal cortex (Example 5); format: in vivo, rat

SMILES: CC[C@@H](C(N)=O)N1CCCC1=O [levetiracetam, (2S)-2-(2-oxopyrrolidin-1-yl)butanamide]
- DG/CA3 hyperactivity during memory judgments ([1]; levetiracetam 62.5 mg BID for two weeks, aMCI subjects (N=20)): does not significantly reduce
- entorhinal cortex (EC) activity during memory judgments ([1]; levetiracetam 125 mg twice a day for two weeks, aMCI subjects): increases EC activity
- DG/CA3 activity during lure stimuli correctly identified as similar ([1]; levetiracetam 125 mg twice a day for two weeks, vs placebo in same aMCI subjects): reduces DG/CA3 hyper-activity
- DG/CA3 hyperactivity during memory judgments ([1]; levetiracetam 250 mg BID for two weeks, aMCI subjects (N=17)): does not significantly reduce
- levels of somatostatin in DG hilus (SOM-immunoreactive hilar neurons) [2]: restores the levels of somatostatin in DG hilus
- performance in the explicit 3-alternative forced choice task ([3]; levetiracetam 62.5 mg BID for two weeks): improves significantly
- performance in the explicit 3-alternative forced choice task ([3]; levetiracetam 125 mg twice a day for two weeks): improves significantly
- performance in the explicit 3-alternative forced choice task ([3]; levetiracetam 250 mg BID for two weeks): does not significantly improve
- reelin mRNA expression in the lateral entorhinal cortex vs AI-VEH ([4]; levetiracetam 10 mg/kg/day for 28 days, AI rats): significantly increased the expression of reelin
- levels of reelin in Entorhinal Cortex (EC2) ([4]; levetiracetam 10 mg/kg/day in osmotic minipumps for four weeks, aged-impaired rats): restores the levels of reelin in Entorhinal Cortex (EC2)
